test system: HIV-IIIb; assay: Test A: Antiviral Assays in MT4 Cells; assay type: cell-based; details: Human immunodeficiency virus 1, IIIB, MT4, 120 h, MT-4 cells infected with HIV-IIIb (0.004 m.o.i.), 5 days of incubation, CellTiter-Glo chemiluminescence readout; read-out: EC50
Method: Test A: Antiviral Assays in MT4 Cells
For the antiviral assay utilizing MT-4 cells, 0.4 μL of […] test concentration of 3-fold serially diluted compound in DMSO was added to 40 μL of cell growth medium (RPMI 1640, 10% FBS, 1% penicillin/Streptomycin, 1% L-Glutamine, 1% HEPES) in each well of 384-well assay plates (10 concentrations) in quadruplicate.
1 mL aliquots of 2×10e6 MT-4 cells are pre-infected for 1 and 3 hrs respectively, @37° C. with 25 μL (MT4) or of either cell growth medium (mock-infected) or a fresh 1:250 dilution of an HIV-IIIb concentrated ABI stock (0.004 m.o.i. for MT4 cells). Infected and uninfected cells are diluted in cell growth medium and 35 uL of 2000 (for MT4) cells is added to each well of the assay plates.
Assay plates were then incubated in a 37° C. incubator. After 5 days of incubation, 25 μl of 2× concentrated CellTiter-Glo™ Reagent (catalog #G7573, Promega Biosciences, Inc., Madison, Wis.) was added to each well of the assay plate. Cell lysis was carried out by incubating at room temperature for 2-3 min and then chemiluminescence was read using the Envision reader (PerkinElmer).

**Q.** How did the EC50 turn out when CCC(O)(C#Cc1ccc2cc(C)c(C(OC(C)(C)C)C(=O)O)c(-c3ccc(Cl)cc3)c2c1)CC (centres unmarked) [Compound 82, 2-tert-Butoxy-2-(1-(4-chlorophenyl)-7-(3-ethyl-3-hydroxypent-1-ynyl)-3-methylnaphthalen-2-yl)acetic acid] was run?
**A.** The EC50 was 58 nM.

**Q.** How did the EC50 turn out when CC(C)=Cc1ccc2cc(C)c(C(OC(C)(C)C)C(=O)O)c(-c3ccc(Cl)cc3)c2c1 (centres unmarked) [Compound 77, 2-tert-butoxy-2-(1-(4-chlorophenyl)-3-methyl-7-(2-methylprop-1-enyl)naphthalen-2-yl)acetic acid] was run?
**A.** Its EC50 is 8900 nM.

**Q.** Which EC50 does the source give for Cc1cc2c(F)cccc2c(-c2ccc3c4c(ccnc24)CCO3)c1C(OC(C)(C)C)C(=O)O (centres unmarked) [Compound 44, 2-tert-Butoxy-2-(1-(2,3-dihydropyrano[4,3,2-de]quinolin-7-yl)-5-fluoro-3-methylnaphthalen-2-yl)acetic acid] here?
**A.** The EC50 was 120 nM.

**Q.** Cc1c(C(OC(C)(C)C)C(=O)O)c(-c2ccc(Cl)cc2)c2ccccc2c1Br (centres unmarked) [Compound 126, 2-(4-Bromo-1-(4-chlorophenyl)-3-methylnaphthalen-2-yl)-2-tert-butoxyacetic acid] was tested. Which EC50 did it give?
**A.** Its EC50 is 833 nM.

**Q.** How did the EC50 turn out when Cc1cc2ccc(CCC3(O)CCCC3)cc2c(-c2ccc(Cl)cc2)c1C(OC(C)(C)C)C(=O)O (centres unmarked) [Compound 91, 2-tert-butoxy-2-(1-(4-chlorophenyl)-7-(2-(1-hydroxycyclopentyl)ethyl)-3-methylnaphthalen-2-yl)acetic acid] was run?
**A.** Its EC50 is 250 nM.

**Q.** Cc1c([C@H](OC(C)(C)C)C(=O)O)c(-c2ccc3c4c(ccnc24)CCO3)c2ccccc2c1C(N)=O [Compound 183, (S)-2-tert-butoxy-2-((R)-4-carbamoyl-1-(2,3-dihydropyrano[4,3,2-de]quinolin-7-yl)-3-methylnaphthalen-2-yl)acetic acid] was tested. Which EC50 did it give?
**A.** The EC50 was 351 nM.

**Q.** How did the EC50 turn out when Cc1cc2ccc(C#CC(C)(C)O)cc2c(-c2ccc(Cl)cc2)c1C(OC(C)(C)C)C(=O)O (centres unmarked) [Compound 69, 2-tert-butoxy-2-(1-(4-chlorophenyl)-7-(3-hydroxy-3-methylbut-1-ynyl)-3-methylnaphthalen-2-yl)acetic acid] was run?
**A.** Its EC50 is 380 nM.

**Q.** Which EC50 does the source give for Cc1c(C(OC(C)(C)C)C(=O)O)c(-c2ccc(Cl)cc2)c2ccccc2c1CN1CCOCC1 (centres unmarked) [Compound 134, 2-tert-Butoxy-2-(1-(4-chlorophenyl)-3-methyl-4-(morpholinomethyl)naphthalen-2-yl)acetic acid] here?
**A.** The EC50 was 150 nM.

**Q.** C=Cc1cc2ccccc2c(-c2ccc(Cl)cc2)c1[C@H](OC(C)(C)C)C(=O)O [Compound 29A, (S)-2-tert-Butoxy-2-(1-(4-chlorophenyl)-3-vinylnaphthalen-2-yl)acetic acid] was tested. Which EC50 did it give?
**A.** Its EC50 is 130 nM.

**Q.** With Cc1c(C(OC(C)(C)C)C(=O)O)c(-c2ccc(Cl)cc2)c2ccccc2c1C#CCN(C)C (centres unmarked) [Compound 131, 2-tert-Butoxy-2-(1-(4-chlorophenyl)-4-(3-(dimethylamino)prop-1-ynyl)-3-methylnaphthalen-2-yl)acetic acid] as the molecule, how does the EC50 read?
**A.** The EC50 was 62 nM.

**Q.** How did the EC50 turn out when Cc1cc2ccc(C#CC(C)(C)N)cc2c(-c2ccc3c4c(ccnc24)CCO3)c1C(OC(C)(C)C)C(=O)O (centres unmarked) [Compound 176] was run?
**A.** Its EC50 is 12000 nM.

**Q.** With Cc1cc2c(C)cccc2c(-c2ccc(Cl)cc2)c1C(OC(C)(C)C)C(=O)O (centres unmarked) [Compound 40, 2-tert-Butoxy-2-(1-(4-chlorophenyl)-3,5-dimethylnaphthalen-2-yl)acetic acid] as the molecule, how does the EC50 read?
**A.** The EC50 was 210 nM.

**Q.** CC(C)(C)O[C@H](C(=O)O)c1c(CO)cc2ccccc2c1-c1ccc(Cl)cc1 [Compound 30, (S)-2-tert-Butoxy-2-(1-(4-chlorophenyl)-3-(hydroxymethyl)naphthalen-2-yl)acetic acid] was tested. Which EC50 did it give?
**A.** Its EC50 is 44 nM.

**Q.** Which EC50 does the source give for Cc1cc2cc(C(N)=O)c(F)cc2c(-c2ccc3c4c(ccnc24)CCO3)c1[C@H](OC(C)(C)C)C(=O)O (atropisomer, axis not shown) [Compound 168] here?
**A.** Its EC50 is 45000 nM.

**Q.** For Cc1cc2ccc(-c3ccc(Cl)cc3)cc2c(-c2ccc(Cl)cc2)c1C(OC(C)(C)C)C(=O)O (centres unmarked) [Compound 70, 2-(1,7-Bis(4-chlorophenyl)-3-methylnaphthalen-2-yl)-2-tert-butoxyacetic acid], which EC50 is on record?
**A.** The EC50 was 8800 nM.

**Q.** For Cc1c(C(OC(C)(C)C)C(=O)O)c(-c2ccc(Cl)cc2)c2ccccc2c1C#N (centres unmarked) [Compound 147, 2-tert-Butoxy-2-(1-(4-chlorophenyl)-4-cyano-3-methylnaphthalen-2-yl)acetic acid], which EC50 is on record?
**A.** The EC50 was 1100 nM.

**Q.** How did the EC50 turn out when Cc1cc2ccc(F)cc2c(-c2ccc3c4c(ccnc24)CCO3)c1[C@H](OC(C)(C)C)C(=O)O (atropisomer, axis not shown) [Compound 179] was run?
**A.** Its EC50 is 18700 nM.

**Q.** How did the EC50 turn out when Cc1cc2ccc(C#CC(C)(C)N(C)C)cc2c(-c2ccc(Cl)cc2)c1C(OC(C)(C)C)C(=O)O (centres unmarked) [Compound 95, 2-tert-Butoxy-2-(1-(4-chlorophenyl)-7-(3-(dimethylamino)-3-methylbut-1-ynyl)-3-methylnaphthalen-2-yl)acetic acid] was run?
**A.** The EC50 was 380 nM.

**Q.** How did the EC50 turn out when Cc1cc2ccc(C#CC(C)(C)N)cc2c(-c2ccc(Cl)cc2)c1[C@H](OC(C)(C)C)C(=O)O [Compound 98, (S)-2-(7-(3-Amino-3-methylbut-1-ynyl)-1-(4-chlorophenyl)-3-methylnaphthalen-2-yl)-2-tert-butoxyacetic acid] was run?
**A.** The EC50 was 10 nM.

**Q.** With Cc1cc2ccc(CCC3CC3)cc2c(-c2ccc(Cl)cc2)c1C(OC(C)(C)C)C(=O)O (centres unmarked) [Compound 92, 2-tert-Butoxy-2-(1-(4-chlorophenyl)-7-(2-cyclopropylethyl)-3-methylnaphthalen-2-yl)acetic acid] as the molecule, how does the EC50 read?
**A.** Its EC50 is 7100 nM.

**Q.** For Cc1cc2ccc(C#CC(C)(C)N)cc2c(-c2ccc(Cl)cc2)c1C(OC(C)(C)C)C(=O)O (centres unmarked) [Compound 85, 2-(7-(3-Amino-3-methylbut-1-ynyl)-1-(4-chlorophenyl)-3-methylnaphthalen-2-yl)-2-tert-butoxyacetic acid], which EC50 is on record?
**A.** The EC50 was 18 nM.

**Q.** How did the EC50 turn out when Cc1cc2cc(C(F)F)c(F)cc2c(-c2ccc3c4c(ccnc24)CCO3)c1[C@H](OC(C)(C)C)C(=O)O (atropisomer, axis not shown) [Compound 164] was run?
**A.** Its EC50 is 25000 nM.

same assay, conditions: MT-4 cells infected with HIV-IIIb (0.004 m.o.i.), 5 days of incubation, CellTiter-Glo chemiluminescence readout; read-out: EC50

**Q.** With Cc1cc2c(Cl)cccc2c(-c2ccc3c4c(ccnc24)CCO3)c1C(OC(C)(C)C)C(=O)O [Compound 47, 2-tert-Butoxy-2-((R)-5-chloro-1-(2,3-dihydropyrano[4,3,2-de]quinolin-7-yl)-3-methylnaphthalen-2-yl)acetic acid] as the molecule, how does the EC50 read?
**A.** Its EC50 is 110 nM.

**Q.** With Cc1cc2cc(C3CC3)c(F)cc2c(-c2ccc3c4c(ccnc24)CCO3)c1[C@H](OC(C)(C)C)C(=O)O [Compound 105, (S)-2-tert-Butoxy-2-((R)-6-cyclopropyl-1-(2,3-dihydropyrano[4,3,2de]quinolin-7-yl)-7-fluoro-3-methylnaphthalen-2-yl)acetic acid] as the molecule, how does the EC50 read?
**A.** Its EC50 is 43 nM.

**Q.** For Cc1cc2c(C#N)cc(F)cc2c(-c2ccc3c4c(ccnc24)CCO3)c1[C@H](OC(C)(C)C)C(=O)O [Compound 113A, (S)-2-tert-Butoxy-2-((R)-5-cyano-1-(2,3-dihydropyrano[4,3,2-de]quinolin-7-yl)-7-fluoro-3-methylnaphthalen-2-yl)acetic acid], which EC50 is on record?
**A.** The EC50 was 910 nM.

**Q.** For CCC(C)(C)O[C@H](C(=O)O)c1c(C)cc2ccccc2c1-c1ccc2c3c(ccnc13)CCO2 [Compound 185, (S)-2-((R)-1-(2,3-dihydropyrano[4,3,2-de]quinolin-7-yl)-3-methylnaphthalen-2-yl)-2-(tert-pentyloxy)acetic acid], which EC50 is on record?
**A.** The EC50 was 24 nM.

**Q.** Cc1cc2cc(C(F)F)c(F)cc2c(-c2ccc3c4c(ccnc24)CCO3)c1[C@H](OC(C)(C)C)C(=O)O [Compound 103, (S)-2-tert-Butoxy-2-((R)-6-(difluoromethyl)-1-(2,3-dihydropyrano[4,3,2-de]quinolin-7-yl)-7-fluoro-3-methylnaphthalen-2-yl)acetic acid] was tested. Which EC50 did it give?
**A.** The EC50 was 26 nM.

**Q.** With Cc1cc2c(F)c(C(F)F)ccc2c(-c2ccc3c4c(ccnc24)CCO3)c1[C@H](OC(C)(C)C)C(=O)O [Compound 121, (S)-2-tert-Butoxy-2-((R)-6-(difluoromethyl)-1-(2,3-dihydropyrano[4,3,2-de]quinolin-7-yl)-5-fluoro-3-methylnaphthalen-2-yl)acetic acid] as the molecule, how does the EC50 read?
**A.** Its EC50 is 14 nM.

**Q.** For Cc1cc2cc(Cl)ccc2c(-c2ccc3c4c(ccnc24)CCO3)c1[C@H](OC(C)(C)C)C(=O)O [Compound 68A, (S)-2-tert-Butoxy-2-((R)-6-chloro-1-(2,3-dihydropyrano[4,3,2-de]quinolin-7-yl)-3-methylnaphthalen-2-yl)acetic acid], which EC50 is on record?
**A.** Its EC50 is 14 nM.

**Q.** How did the EC50 turn out when Cc1cc2cc(C(N)=O)c(F)cc2c(-c2ccc3c4c(ccnc24)CCO3)c1[C@H](OC(C)(C)C)C(=O)O [Compound 106B, (S)-2-tert-Butoxy-2-((R)-6-carbamoyl-1-(2,3-dihydropyrano[4,3,2-de]quinolin-7-yl)-7-fluoro-3-methylnaphthalen-2-yl)acetic acid] was run?
**A.** The EC50 was 91 nM.

**Q.** For Cc1cc2c(C)c(C)ccc2c(-c2ccc3c4c(ccnc24)CCO3)c1[C@H](OC(C)(C)C)C(=O)O [Compound 117, (S)-2-tert-Butoxy-2-((R)-1-(2,3-dihydropyrano[4,3,2-de]quinolin-7-yl)-3,5,6-trimethylnaphthalen-2-yl)acetic acid], which EC50 is on record?
**A.** The EC50 was 11 nM.

**Q.** Which EC50 does the source give for Cc1cc2c(F)c(Cl)ccc2c(-c2ccc3c4c(ccnc24)CCO3)c1[C@H](OC(C)(C)C)C(=O)O [Compound 115, (S)-2-tert-Butoxy-2-((R)-6-chloro-1-(2,3-dihydropyrano[4,3,2-de]quinolin-7-yl)-5-fluoro-3-methylnaphthalen-2-yl)acetic acid] here?
**A.** The EC50 was 37 nM.
